Reference: patent US20100113301A1, “METHOD FOR THE IDENTIFICATION AND/OR THE QUANTIFICATION OF A TARGET COMPOUND OBTAINED FROM A BIOLOGICAL SAMPLE UPON CHIPS” (Eppendorf Array Technologies, priority 1999, published 2010)
Several values for one entry are separate records, joined by “and”; a condition that tells them apart may be missing. Identical values can stand only once.

Tested on: Rat Liver Gene Expression
Assay: Rat liver gene expression on Rat HepatoChips microarrays, colorimetric silver detection
Settings: liver mRNA of treated rat, 100 mg/kg per day orally for 4 days, raw spot intensity mean, 100 mg/kg/day
Protocol: Female Sprague-Dawley CD rats (aged 10-12 weeks) were dosed orally with 100 mg/kg per day of either Sodium Phenobarbitone (PB) or pregnenalone 16-carbonitrile (PCN) (Sigma-Aldrich Co. Poole, Dorset, UK) for 4 days. Control animals received corresponding quantities (5 ml/kg body weight) of the 0.56% (w/v) gum tragacanth vehicle. Animals were killed by decapitation and the livers immediately removed for further mRNA extraction.
The arrays also include positive and negative controls for the hybridization process, an internal standard control and 8 housekeeping genes.
The Rat HepatoChips is composed of single strand DNA probes attached to the glass by a covalent link. The length of the DNA nucleotide sequences has been optimized. They are the same for all genes and are located near the 3′ end of the transcript. All probes have been designed to be gene specific and have been prepared using rat cDNAs.
Labeled cDNA was prepared using 2 μg mRNA isolated using the FastTrack 2.0 mRNA isolation Kit (Invitrogen). A synthetic poly (A)+tailed mRNA was spiked to the purified mRNA as internal standard to assist in quantification and estimation of experimental variation introduced during labeling and reading. mRNA was added to 2 μl of oligo dT(12-18) primer (0.5 μg/ul) (Gibco BRL), RNase free water was used to bring the volume to 9 μl, and the mixture was denatured at 70° C. for 10 min and then chilled on ice for 5 min. The reverse transcription was performed by adding the following components to the annealed probe/template on ice: 4 μl of First Strand Buffer (250 mM Tris-HCl pH 8.3, 375 mM KCl, 15 mM MgCl2) (Gibco BRL), 2 ul of DTT 0.1 M (Gibco BRL), 40 units of RNasin ribonuclease inhibitor (Promega), 500 μM dATP (Roche), 500 μM dTTP (Roche), 500 μM dGTP (Roche), 80 μM dCTP (Roche), 80 μM biotin-1′-dCTP (NEN). The reaction mixture was mixed gently by flicking the tube and incubated for 5 min at room temperature. 300 units of SuperScript II RT (RNase H—) (Gibco BRL) was added to the reaction mixture and the reverse transcription was allowed to proceed for 90 min at 42° C. Then an additional 300 units of SuperScript II RT was added and incubation was continued at 42° C. for another 90 min. The reaction was ended by heat inactivation at 70° C. for 15 min. To remove RNA complementary to the cDNA, a treatment with RNase H was performed at 37° C. for 20 min following by a heat denaturation at 95° C. for 3 minutes and cooled on ice before use. No further RT product purification was necessary.
The hybridization was performed in a hybridization chamber (Biozym, Landgraaf, The Netherlands) containing the hybridization buffer ‘Hepatobuffer’ and a positive hybridization control (a biotinylated amplicons, at a concentration of 25 nM). Hybridization was carried out overnight at 60° C. The arrays were then washed four times for 2 min with washing buffer at room temperature.
The presence of biotinylated hybrids on the microarray was detected using a antibody anti-biotin conjugate coupled colloidal gold. The arrays were then incubated with a 1:100 dilution of conjugate solution in a blocking buffer (100 mM maleic buffer pH 7.5, 150 mM NaCl and 0.1% milk powder) for […] at room temperature. The array were then washed five times for 2 min at room temperature, rinsed briefly with deionized water then dried. Then array is incubated at room temperature for 5 min in the Silver Blue Solution (AAT, Namur, Belgium), rinsed in water, dried 5′ at 37° C. and read with the scanner described herein.
The scanner used had the following scanning parameters:
Bit depth: 16 bits grayscale (65536 grey levels)
no additional correction of the image (i.e. standard values for contrast, brightness, . . . )
Scanning software: Silverfast from LaserSoft
Quantification Software: Imagene 4.2 from Biodiscovery

## CCC1(c2ccccc2)C(=O)NC(=O)NC1=O [phenobarbital, Sodium Phenobarbitone]
Gene ACO
  Test Signal, ACO: 51686 16-bits grayscale and 51619 16-bits grayscale
Gene Albumin
  Test Signal, Albumin: 63921 16-bits grayscale and 63641 16-bits grayscale
Gene ApoJ
  Test Signal, ApoJ: 52452 16-bits grayscale and 55866 16-bits grayscale
Gene B-actin
  Test Signal, B-actin: 52992 16-bits grayscale and 55039 16-bits grayscale
Gene Bax
  Test Signal, Bax: 24767 16-bits grayscale and 27814 16-bits grayscale
Gene Bcl-2
  Test Signal, Bcl-2: 21220 16-bits grayscale and 21509 16-bits grayscale
Gene C-jun
  Test Signal, C-jun: 22382 16-bits grayscale and 23523 16-bits grayscale
Gene C-myc
  Test Signal, C-myc: 27229 16-bits grayscale and 28315 16-bits grayscale
Gene C/EBP
  Test Signal, C/EBP: 31394 16-bits grayscale and 31754 16-bits grayscale
Gene Cox-2
  Test Signal, Cox-2: 20187 16-bits grayscale and 20484 16-bits grayscale
Gene Cyclin D1
  Test Signal, Cyclin D1: 25036 16-bits grayscale and 25587 16-bits grayscale
Gene Cyp 1a1
  Test Signal, Cyp 1a1: 20728 16-bits grayscale and 20972 16-bits grayscale
Gene Cyp 1b1
  Test Signal, Cyp 1b1: 22231 16-bits grayscale and 21071 16-bits grayscale
Gene Cyp 2b
  Test Signal, Cyp 2b: 62971 16-bits grayscale and 62867 16-bits grayscale
Gene Cyp 3a
  Test Signal, Cyp 3a: 63098 16-bits grayscale and 63114 16-bits grayscale
Gene Cyp 4a1
  Test Signal, Cyp 4a1: 35089 16-bits grayscale and 35673 16-bits grayscale
Gene Cyt oxidase 1
  Test Signal, Cyt oxidase 1: 63947 16-bits grayscale and 62432 16-bits grayscale
Gene Elk
  Test Signal, Elk: 20632 16-bits grayscale and 20630 16-bits grayscale
Gene Enoyl CoA
  Test Signal, Enoyl CoA: 60758 16-bits grayscale and 60738 16-bits grayscale
Gene Erk-1
  Test Signal, Erk-1: 22998 16-bits grayscale and 23360 16-bits grayscale
Gene Ferritin
  Test Signal, Ferritin: 60237 16-bits grayscale and 59913 16-bits grayscale
Gene Fibronectin
  Test Signal, Fibronectin: 47542 16-bits grayscale and 50240 16-bits grayscale
Gene GADD45
  Test Signal, GADD45: 22359 16-bits grayscale and 22287 16-bits grayscale
Gene GADD153
  Test Signal, GADD153: 23334 16-bits grayscale and 23216 16-bits grayscale
Gene GAPDH
  Test Signal, GAPDH: 58466 16-bits grayscale and 60437 16-bits grayscale
Gene GSH reductase
  Test Signal, GSH reductase: 24281 16-bits grayscale and 23937 16-bits grayscale
Gene Glutathione Theta 5
  Test Signal, Glutathione Theta 5: 30062 16-bits grayscale and 32113 16-bits grayscale
Gene Glutatione Ya
  Test Signal, Glutatione Ya: 63398 16-bits grayscale and 63872 16-bits grayscale
Gene HGF
  Test Signal, HGF: 21195 16-bits grayscale and 20996 16-bits grayscale
Gene HGPT
  Test Signal, HGPT: 26564 16-bits grayscale and 27506 16-bits grayscale
Gene HMG
  Test Signal, HMG: 34978 16-bits grayscale and 36070 16-bits grayscale
Gene Histone Dacetyl
  Test Signal, Histone Dacetyl: 21846 16-bits grayscale and 21766 16-bits grayscale
Gene Hox2
  Test Signal, Hox2: 30000 16-bits grayscale and 29975 16-bits grayscale
Gene Hsp 70
  Test Signal, Hsp 70: 23738 16-bits grayscale and 22628 16-bits grayscale
Gene II6
  Test Signal, II6: 20776 16-bits grayscale and 20646 16-bits grayscale
Gene IKB
  Test Signal, IKB: 21781 16-bits grayscale and 21227 16-bits grayscale
Gene JNK
  Test Signal, JNK: 20743 16-bits grayscale and 20935 16-bits grayscale
Gene MDR1
  Test Signal, MDR1: 27172 16-bits grayscale and 26841 16-bits grayscale
Gene Macroglobulin
  Test Signal, Macroglobulin: 32619 16-bits grayscale and 33165 16-bits grayscale
Gene Mgmt
  Test Signal, Mgmt: 23373 16-bits grayscale and 23981 16-bits grayscale
Gene MnSOD
  Test Signal, MnSOD: 26695 16-bits grayscale and 26251 16-bits grayscale
Gene Myr
  Test Signal, Myr: 22905 16-bits grayscale and 22579 16-bits grayscale
Gene NFKB
  Test Signal, NFKB: 21439 16-bits grayscale and 21343 16-bits grayscale
Gene ODC
  Test Signal, ODC: 23381 16-bits grayscale and 23303 16-bits grayscale
Gene P38
  Test Signal, P38: 26227 16-bits grayscale and 28841 16-bits grayscale
Gene P53
  Test Signal, P53: 25848 16-bits grayscale and 25221 16-bits grayscale
Gene PCNA
  Test Signal, PCNA: 23374 16-bits grayscale and 23609 16-bits grayscale
Gene PPAR
  Test Signal, PPAR: 20767 16-bits grayscale and 20704 16-bits grayscale
Gene Phospho A2
  Test Signal, Phospho A2: 21966 16-bits grayscale and 21421 16-bits grayscale
Gene S29
  Test Signal, S29: 50843 16-bits grayscale and 53202 16-bits grayscale
Gene Smp30
  Test Signal, Smp30: 32696 16-bits grayscale and 31894 16-bits grayscale
Gene TGFbRII
  Test Signal, TGFbRII: 22149 16-bits grayscale and 23021 16-bits grayscale
Gene TNF
  Test Signal, TNF: 21082 16-bits grayscale and 20767 16-bits grayscale
Gene Telomerase
  Test Signal, Telomerase: 23256 16-bits grayscale and 22745 16-bits grayscale
Gene Transferrin
  Test Signal, Transferrin: 61525 16-bits grayscale and 61527 16-bits grayscale
Gene Tubulin
  Test Signal, Tubulin: 36262 16-bits grayscale and 36054 16-bits grayscale
Gene UDPGT1a6
  Test Signal, UDPGT1a6: 22769 16-bits grayscale and 22766 16-bits grayscale
Gene UDPGT1a
  Test Signal, UDPGT1a: 52205 16-bits grayscale and 50981 16-bits grayscale
Gene Ubiquitin
  Test Signal, Ubiquitin: 59171 16-bits grayscale and 59613 16-bits grayscale
